Counter-ions that a name gives are not always drawn.
Columns and labels:
Sindbis virus (SINDV) = assay: Antiviral CPE assay, SINDV in VeroE6; format: cell-based; conditions: Sindbis virus, Vero C1008; VeroE6 host cells
Zika virus (ZIKV) = assay: Antiviral CPE assay, ZIKV in VeroE6; format: cell-based; conditions: Zika virus, Vero C1008; VeroE6 host cells
[1] = tested on: Semliki Forest virus (SFV); assay: Antiviral CPE assay, SFV in VeroE6; format: cell-based; conditions: Semliki Forest virus, Vero C1008; VeroE6 host cells
in vitro [2] = conditions: African green monkey
yellow fever virus (YFV) = assay: microbe, parasite or virus in culture; format: cell-based; conditions: Yellow fever virus, Vero C1008, read-out: Antiviral Activity (EC50) YFV VeroE6
[3] = tested on: K-562 chronic myeloid leukemia cells; assay: Antiproliferative activity, K-562 cells; format: cell-based, human; conditions: K-562, 72 h incubation
Method: (§1) All prepared imidazo[4,5-b]pyridines were tested for their antiproliferative activity against the following cancer cell lines: LN-229—glioblastoma, Capan-1—pancreatic adenocarcinoma, HCT-116—colorectal carcinoma, NCI-H460—lung carcinoma, DND-41—acute lymphoblastic leukemia, HL-60—acute myeloid leukemia, K-562—chronic myeloid leukemia, and Z-138—non-Hodgkin lymphoma cancer cells. An overview of the results is presented in Table 2 as IC50 values (50% inhibitory concentration). An established antitumor drug, etoposide (ETO), was included for comparison.
(§2) For proliferation assays, the human cancer cell lines used in this manuscript, namely Capan-1, HCT-116, NCI-H460, LN-229, HL-60, K-562, and Z-138, were acquired from the American Type Culture Collection (ATCC, Manassas, VA, USA), while the DND-41 cell line was purchased from the Deutsche Sammlung von Mikroorganismen und Zellkulturen (DSMZ Leibniz-Institut, Braunschweig, Germany). Culture media were purchased from Gibco (Gibco Life Technologies, Merelbeke, Belgium) and supplemented with 10% fetal bovine serum (HyClone, Cytiva, Marlborough, MA, USA). Adherent cell lines LN-229, HCT-116, NCI-H460, and Capan-1 cells were seeded in 384-well tissue culture plates (Greiner, Kremsmünster, Austria) at a density between 500 and 1500 cells per well (500 cells per well for Capan-1, 1000 cells per well for LN-229 and HCT-116, and 1500 cells per well for NCI-H460). The cells were treated with seven different concentrations of the test compounds in a 5-fold dilution series ranging from 100 to 0.006 µM after overnight incubation. Suspension cell lines HL-60, K-562, Z-138, and DND-41 were seeded at densities ranging from 2500 to 5500 cells per well (2500 cells per well for HL-60, K-562, and Z-138, and 5500 cells per well for DND-41) in 384-well culture plates containing the test compounds at the same concentration points. All conditions were incubated for 72 h before measuring the cell viability by the CellTiter 96® AQueous Non-Radioactive Cell Proliferation Assay (Promega, Madison, WA, USA) according to the manufacturer’s instructions. After 3 h, absorbance of all conditions was measured at 490 nm using a SpectraMax Plus 384 (Molecular Devices, San Jose, CA, USA), and the OD values were used to calculate the 50% inhibitory concentration (IC50). Compounds were tested in two independent experiments.

[4] = tested on: Z-138 non-Hodgkin lymphoma cells; assay: Antiproliferative activity, Z-138 cells; format: cell-based, human; conditions: Z-138, 72 h incubation
Method: as §1, §2

[5] = tested on: DND-41 acute lymphoblastic leukemia cells; assay: Antiproliferative activity, DND-41 cells; format: cell-based, human; conditions: DND-41, 72 h incubation
Method: as §1, §2

[6] = tested on: Capan-1 pancreatic adenocarcinoma cells; assay: Antiproliferative activity, Capan-1 cells; format: cell-based, human; conditions: Capan-1, 72 h incubation
Method: as §1, §2

[7] = tested on: HL-60 acute myeloid leukemia cells; assay: Antiproliferative activity, HL-60 cells; format: cell-based, human; conditions: HL-60, 72 h incubation
Method: as §1, §2

[8] = tested on: NCI-H460 lung carcinoma cells; assay: Antiproliferative activity, NCI-H460 cells; format: cell-based, human; conditions: NCI-H460, 72 h incubation
Method: as §1, §2

[9] = tested on: HCT-116 colorectal carcinoma cells; assay: Antiproliferative activity, HCT-116 cells; format: cell-based, human; conditions: HCT-116, 72 h incubation
Method: as §1, §2

[10] = tested on: LN-229 glioblastoma cells; assay: Antiproliferative activity, LN-229 cells; format: cell-based, human; conditions: LN-229, 72 h incubation
Method: as §1, §2

[11] = tested on: respiratory syncytial virus (RSV) A; assay: Antiviral CPE assay, RSV in Hep-2; format: cell-based; conditions: human respiratory syncytial virus; Hep-2 host cells
[12] = tested on: influenza A/H3N2 (A/HK/7/87); assay: Antiviral CPE assay, influenza A/H3N2 in MDCK; format: cell-based; conditions: Influenza A virus, MDCK host cells
in vitro [13] = conditions: dog
[14] = tested on: influenza A/H1N1 (A/Ned/378/05); assay: Antiviral CPE assay, influenza A/H1N1 in MDCK; format: cell-based; conditions: Influenza A virus, MDCK host cells
[15] = tested on: influenza B (B/Ned/537/05); assay: Antiviral CPE assay, influenza B in MDCK; format: cell-based; conditions: Influenza B virus; MDCK host cells

| SMILES | IC50 ([3]; Homo sapiens, K562, 72 h) | IC50 ([4]; Homo sapiens, Z-138, 72 h) | IC50 ([5]; Homo sapiens, DND41, 72 h) | IC50 ([6]; Homo sapiens, CAPAN-1, 72 h) | IC50 ([7]; Homo sapiens, HL-60, 72 h) | IC50 ([8]; Homo sapiens, NCI-H460, 72 h) | IC50 ([9]; Homo sapiens, HCT-116, 72 h) | IC50 ([10]; Homo sapiens, LN-229, 72 h) | other results |
| --- | --- | --- | --- | --- | --- | --- | --- | --- | --- |
| CCN(CC)CCCC(C)Nc1ccnc2cc(Cl)ccc12 (centres unmarked) [Chloroquine, chloroquine] |  |  |  |  |  |  |  |  | EC50 (Sindbis virus (SINDV)): 8 µM; EC50 (Zika virus (ZIKV)): 13.4 µM; EC50 [1]: > 100 µM; CC50 (in vitro [2]): 55.8 µM; EC50 (yellow fever virus (YFV)): > 100 µM |
| c1ccc(-c2cnc3[nH]c(-c4ccccc4)nc3c2)cc1 [Compound 12, 2.6-diphenyl-3H-imidazo[4,5-b]pyridine] | > 100 µM | 30.1 µM | > 100 µM | 35.3 µM | 52.3 µM | > 100 µM | > 100 µM | > 100 µM |  |
| COc1ccc(-c2cnc3[nH]c(-c4ccccc4)nc3c2)cc1 [Compound 14, 6-(4-methoxyphenyl)-2-phenyl-3H-imidazo [4,5-b]pyridine] | > 100 µM | > 100 µM | > 100 µM | > 100 µM | 69.4 µM | > 100 µM | > 100 µM | > 100 µM |  |
| O=[N+]([O-])c1ccc(-c2cnc3[nH]c(-c4ccccc4)nc3c2)cc1 [Compound 16, 6-(4-nitrophenyl)-2-phenyl-3H-imidazo[4,5-b]pyridine] | > 100 µM | 65.2 µM | > 100 µM | > 100 µM | 79 µM | > 100 µM | > 100 µM | > 100 µM |  |
| Nc1ccc(-c2cnc3[nH]c(-c4ccccc4)nc3c2)cc1 [Compound 17, 4-(2-phenyl-3H-imidazo [4,5-b]pyridin-6-yl)aniline] | 83.2 µM | 40.9 µM | 76.4 µM |  | 41.5 µM | > 100 µM | > 100 µM | 73 µM | IC50 [6]: 26.6 µM |
| Nc1ccc(-c2cnc3[nH]c(-c4ccccc4)nc3c2)cc1 [Compound 18, 4-(2-phenyl-3H-imidazo [4,5-b]pyridin-6-yl)aniline hydrochloride] |  |  |  |  |  |  |  |  | IC50 [3]: 84.7 µM; IC50 [4]: 34.8 µM; IC50 [5]: 70.9 µM; IC50 [6]: 7.29 µM; IC50 [7]: 46.1 µM; IC50 [8]: > 100 µM; IC50 [9]: > 100 µM; IC50 [10]: 63.6 µM |
| COc1ccc(-c2cnc3c(c2)nc(-c2ccccc2)n3C)cc1 [Compound 20, 6-(4-methoxyphenyl)-3-methyl-2-phenyl-3H-imidazo [4,5-b]pyridine] | > 100 µM | 86 µM | > 100 µM | > 100 µM | 62.5 µM | > 100 µM | > 100 µM | > 100 µM |  |
| Cn1c(-c2ccccc2)nc2cc(-c3ccc(C#N)cc3)cnc21 [Compound 21, 4-(3-methyl-2-phenyl-3H-imidazo [4,5-b]pyridin-6-yl)benzonitrile] | > 100 µM | 62.8 µM | > 100 µM | > 100 µM | 83.1 µM | > 100 µM | > 100 µM | > 100 µM |  |
| Cn1c(-c2ccccc2)nc2cc(-c3ccc([N+](=O)[O-])cc3)cnc21 [Compound 23, 3-methyl-6-(4-nitrophenyl)-2-phenyl-3H-imidazo [4,5-b]pyridine] | > 100 µM | 72.9 µM | > 100 µM | > 100 µM | 89.9 µM | > 100 µM | > 100 µM | > 100 µM |  |
| Cn1c(-c2ccccc2)nc2cc(-c3ccc(N)cc3)cnc21 [Compound 24, 4-(3-methyl-2-phenyl-3H-imidazo [4,5-b]pyridin-6-yl)aniline] | 62.2 µM |  | 78.5 µM | 63 µM | 36.2 µM | 81.6 µM | > 100 µM | 55.8 µM | IC50 [4]: 54.4 µM |
| Cn1c(-c2ccccc2)nc2cc(-c3ccc(N)cc3)cnc21 [Compound 25, 4-(3-methyl-2-phenyl-3H-imidazo [4,5-b]pyridin-6-yl)aniline hydrochloride] |  |  |  |  |  |  |  |  | IC50 [3]: 39 µM; IC50 [4]: 25.5 µM; IC50 [5]: > 100 µM; IC50 [6]: 67.3 µM; IC50 [7]: 23.7 µM; IC50 [8]: > 100 µM; IC50 [9]: 56.2 µM; IC50 [10]: 59.1 µM |
| COc1cc([C@@H]2c3cc4c(cc3[C@@H](O[C@@H]3O[C@@H]5CO[C@@H](C)O[C@H]5[C@H](O)[C@H]3O)[C@H]3COC(=O)[C@H]23)OCO4)cc(OC)c1O [ETO, etoposide, reference compound] | 2.35 µM | 0.05 µM | 0.6 µM | 0.1 µM | 0.37 µM | 4.6 µM | 2.55 µM | 1.37 µM |  |
| COc1c(C)c2c(c(O)c1C/C=C(\C)CCC(=O)O)C(=O)OC2 [Mycoph. acid, mycophenolic acid] |  |  |  |  |  |  |  |  | EC50 (Sindbis virus (SINDV)): > 100 µM; EC50 (Zika virus (ZIKV)): 25.2 µM; EC50 [1]: > 100 µM; EC50 [11]: 0.8 µM; CC50 (in vitro [2]): > 100 µM; EC50 (yellow fever virus (YFV)): 0.6 µM |
| CC(N)C12CC3CC(CC(C3)C1)C2 (centres unmarked) [Rimantadin, rimantadine] |  |  |  |  |  |  |  |  | EC50 [12]: 0.06 µM; CC50 (in vitro [13]): > 100 µM; EC50 [14]: 0.08 µM; EC50 [15]: > 100 µM |
| CC(=O)N[C@H]1[C@H]([C@H](O)[C@H](O)CO)OC(C(=O)O)=C[C@@H]1N=C(N)N [Zanamivir, zanamivir] |  |  |  |  |  |  |  |  | EC50 [12]: 68.1 µM; CC50 (in vitro [13]): > 100 µM; EC50 [14]: 0.3 µM; EC50 [15]: 0.5 µM |
